Reference: patent publication US12514882B2, “Faecalibacterium prausnitzii strain EB-FPDK11 and use thereof” (ENTEROBIOME INC., priority 2020, dated 2026)
Converted amounts (≈) assume the structure as drawn.

What was measured:
Format in all cases: cell-based
[1] = tested on: Bacteroides thetaiotaomicron ATCC 29741; assay: MIC, liquid medium microdilution (CLSI), QC strain; details: ATCC29741
[2] = tested on: Faecalibacterium prausnitzii DSM 17677^T; assay: MIC, liquid medium microdilution (CLSI), standard strain; details: for MIC breakpoint category (S/I/R): DSM 17677^T
[3] = tested on: Faecalibacterium prausnitzii EB-FPDK11 strain; assay: MIC, liquid medium microdilution (CLSI), EB-FPDK11; details: for MIC breakpoint category (S/I/R): EB-FPDK11; for resistance or susceptibility of the EB-FPDK11 strain to the agent (in words): text summary of Table 4

Molecule: C[C@@H](O)[C@H]1C(=O)N2C(C(=O)O)=C(S[C@@H]3CN[C@H](C(=O)N(C)C)C3)[C@H](C)[C@H]12 [MEM, meropenem]
- MIC [1]: 0.5 mg/L (≈ 1.3 µM)
- MIC breakpoint category (S/I/R) ([2]; MEM breakpoints): R (≥16)
- MIC breakpoint category (S/I/R) ([3]; MEM breakpoints): R (≥16)
- resistance or susceptibility of the EB-FPDK11 strain to the agent (in words) [3]: resistance

Molecule: Piperacillin-tazobactam [PTZ]
- MIC breakpoint category (S/I/R) ([2]; PTZ breakpoints): R (≥128/4)
- MIC ([2]; test strain DSM 17677^T): 256/4
- MIC breakpoint category (S/I/R) ([3]; PTZ breakpoints): R (≥128/4)
- MIC ([3]; test strain EB-FPDK11): 256/4
- resistance or susceptibility of the EB-FPDK11 strain to the agent (in words) [3]: resistance

Molecule: O=C(N[C@H](CO)[C@H](O)c1ccc([N+](=O)[O-])cc1)C(Cl)Cl [CHL, chloramphenicol]
- MIC breakpoint category (S/I/R) ([2]; CHL breakpoints): R (≥32)
- MIC breakpoint category (S/I/R) ([3]; CHL breakpoints): S (≤8)
- resistance or susceptibility of the EB-FPDK11 strain to the agent (in words) [3]: susceptibility

Molecule: COc1c(N2C[C@@H]3CCCN[C@@H]3C2)c(F)cc2c(=O)c(C(=O)O)cn(C3CC3)c12 [MXF, moxifloxacin]
- MIC breakpoint category (S/I/R) ([2]; MXF breakpoints): R (≥8)
- MIC breakpoint category (S/I/R) ([3]; MXF breakpoints): R (≥8)

Molecule: CCC[C@@H]1C[C@@H](C(=O)N[C@@H]([C@H]2O[C@H](SC)[C@H](O)[C@@H](O)[C@H]2O)[C@H](C)Cl)N(C)C1 [CLI, clindamycin]
- MIC breakpoint category (S/I/R) ([2]; CLI breakpoints): (S) (≤2)
- MIC breakpoint category (S/I/R) ([3]; CLI breakpoints): (S) (≤2)

Molecule: Cc1ncc([N+](=O)[O-])n1CCO [MTZ, metronidazole]
- MIC breakpoint category (S/I/R) ([2]; MTZ breakpoints): S (≤8)
- MIC breakpoint category (S/I/R) ([3]; MTZ breakpoints): 5
- resistance or susceptibility of the EB-FPDK11 strain to the agent (in words) [3]: susceptibility

Molecule: CO/N=C(\C(=O)N[C@@H]1C(=O)N2C(C(=O)O)=CCS[C@H]12)c1csc(N)n1 [CTZ, ceftizoxime]
- MIC breakpoint category (S/I/R) ([2]; CTZ breakpoints): I (64)
- MIC breakpoint category (S/I/R) ([3]; CTZ breakpoints): R (≥128)
- resistance or susceptibility of the EB-FPDK11 strain to the agent (in words) [3]: resistance
